Test results taken from PubChem BioAssay AID248 (DTP/NCI, 2004).
Several values for one entry are separate records, joined by “and”; a condition that tells them apart may be missing. Equal entries are not always repeated. Inconclusive results and toxic doses are left out.

Test system: L1210 leukemia ip in BDF1 mice, survival T/C
Assay: NCI In Vivo Anticancer Drug Screen. Data for tumor model L1210 Leukemia (intraperitoneal) in B6D2F1 (BDF1) mice
Conditions: endpoint: mean survival time, higher = longer survival
Outline: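 Value reflects the ratio of survival in compound-treated mice to survival in vehicle-treated controls, with both groups carrying the same transplanted tumor.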

[1] = dose: 200.0 mg/kg/injection, schedule: Q04DX003 (ip), vehicle: Klucel (hydroxypropylcellulose) (HPC)
[2] = dose: 400.0 mg/kg/injection, schedule: Q04DX003 (ip), vehicle: Klucel (hydroxypropylcellulose) (HPC)
[3] = dose: 100.0 mg/kg/injection, schedule: Q01DX001 (ip), vehicle: saline
[4] = dose: 200.0 mg/kg/injection, schedule: Q01DX001 (ip), vehicle: saline
[5] = dose: 400.0 mg/kg/injection, schedule: Q01DX001 (ip), vehicle: saline
[6] = dose: 50.0 mg/kg/injection, schedule: Q01DX009 (ip), vehicle: saline with Tween-80
[7] = dose: 100.0 mg/kg/injection, schedule: Q01DX009 (ip), vehicle: saline with Tween-80

In the case of `CCC(=O)NC1=C(N2CC2)C(=O)C(NC(=O)CC)=C(N2CC2)C1=O`, the T/C (dose: 0.31 mg/kg/injection, schedule: Q01DX009 (ip), vehicle: Klucel (hydroxypropylcellulose) (HPC)) is reported as 121 % of control, the T/C (dose: 1.25 mg/kg/injection, schedule: Q01DX001 (ip), vehicle: saline with Tween-80) is reported as 115 % of control and the T/C (dose: 1.25 mg/kg/injection, schedule: Q01DX001 (ip), vehicle: saline) is reported as 108 % of control. The T/C (dose: 1.25 mg/kg/injection, schedule: Q01DX009 (ip), vehicle: Klucel (hydroxypropylcellulose) (HPC)) was 162 % of control, the T/C (dose: 2.5 mg/kg/injection, schedule: Q01DX001 (ip), vehicle: saline) was 119 % of control and the T/C (dose: 2.5 mg/kg/injection, schedule: Q04DX003 (ip), vehicle: Klucel (hydroxypropylcellulose) (HPC)) was 175 % of control. The T/C (dose: 5.0 mg/kg/injection, schedule: Q01DX001 (ip), vehicle: saline with Tween-80) was 167 % of control, the T/C (dose: 5.0 mg/kg/injection, schedule: Q01DX009 (ip), vehicle: Klucel (hydroxypropylcellulose) (HPC)) was 104 % of control and the T/C (dose: 5.0 mg/kg/injection, schedule: Q01DX009 (ip), vehicle: saline) was 100 % of control. For the same molecule, the T/C (dose: 5.0 mg/kg/injection, schedule: Q04DX003 (ip), vehicle: Klucel (hydroxypropylcellulose) (HPC)) was 102 % of control, the T/C (dose: 10.0 mg/kg/injection, schedule: Q01DX001 (ip), vehicle: saline with Tween-80) was 169 % of control and the T/C (dose: 10.0 mg/kg/injection, schedule: Q01DX009 (ip), vehicle: saline) was 93 % of control. The T/C (dose: 10.0 mg/kg/injection, schedule: Q04DX003 (ip), vehicle: Klucel (hydroxypropylcellulose) (HPC)) was 90 % of control.
For `COc1cc(Nc2ncnc(N)c2[N+](=O)[O-])cc(OC)c1OC`, the T/C (dose: 200.0 mg/kg/injection, schedule: Q04DX003 (ip), vehicle: saline with Tween-80) was 88 % of control.
With `Cc1ccc(NC(=S)NC(Cc2ccccc2)c2ccccc2)cc1` (configuration not stated) the T/C (dose: 100.0 mg/kg/injection, schedule: Q01DX009 (ip), vehicle: Klucel (hydroxypropylcellulose) (HPC)) was 97 % of control, the T/C (dose: 200.0 mg/kg/injection, schedule: Q01DX009 (ip), vehicle: Klucel (hydroxypropylcellulose) (HPC)) was 94 % of control and the T/C [1] was 93 % of control. For the same molecule, the T/C (dose: 400.0 mg/kg/injection, schedule: Q01DX009 (ip), vehicle: Klucel (hydroxypropylcellulose) (HPC)) was 96 % of control and the T/C [2] was 102 % of control.
`COC(=O)c1ccccc1Cn1ccnc1` was tested, and the T/C [3] was 108 % of control, the T/C (dose: 100.0 mg/kg/injection, schedule: Q01DX009 (ip), vehicle: saline) was 102 % of control and 92 % of control and the T/C (dose: 100.0 mg/kg/injection, schedule: Q04DX002 (ip), vehicle: saline) was 96 % of control and 103 % of control. For the same molecule, the T/C (dose: 100.0 mg/kg/injection, schedule: Q04DX003 (ip), vehicle: saline) was 115 % of control, the T/C [4] was 101 % of control and the T/C (dose: 200.0 mg/kg/injection, schedule: Q01DX009 (ip), vehicle: saline) was 94 % of control and 97 % of control. For the same molecule, the T/C (dose: 200.0 mg/kg/injection, schedule: Q04DX002 (ip), vehicle: saline) was 103 % of control and 105 % of control, the T/C (dose: 200.0 mg/kg/injection, schedule: Q04DX003 (ip), vehicle: saline) was 101 % of control and the T/C [5] was 97 % of control. For the same molecule, the T/C (dose: 400.0 mg/kg/injection, schedule: Q04DX002 (ip), vehicle: saline) was 100 % of control.
For `CCC(=O)c1ccc(OC(=O)Nc2ccc(C)c(NC(=O)Oc3ccc(C(=O)CC)cc3)c2)cc1`, the T/C (dose: 100.0 mg/kg/injection, schedule: Q01DX009 (ip), vehicle: other) was 107 % of control and the T/C (dose: 200.0 mg/kg/injection, schedule: Q01DX009 (ip), vehicle: other) was 100 % of control.
With `Nc1cccc(C(O)c2ccccc2)c1` (configuration not stated) the T/C (dose: 100.0 mg/kg/injection, schedule: Q04DX003 (ip), vehicle: Klucel (hydroxypropylcellulose) (HPC)) was 90 % of control, the T/C [1] was 92 % of control and the T/C [2] was 95 % of control.
With `CCCCCCN(CCCCCC)C(F)(F)C(=O)Nc1ccc(S(=O)(=O)c2ccc(NC(=O)C(F)(F)N(CCCCCC)CCCCCC)cc2)cc1` the T/C (dose: 12.5 mg/kg/injection, schedule: Q01DX001 (ip), vehicle: saline) was 105 % of control, the T/C (dose: 25.0 mg/kg/injection, schedule: Q01DX001 (ip), vehicle: saline) was 100 % of control and the T/C (dose: 50.0 mg/kg/injection, schedule: Q01DX001 (ip), vehicle: saline) was 107 % of control.
For `CCN(CC)CCN(C)C(=O)C(=O)c1ccccc1`, the T/C (dose: 75.0 mg/kg/injection, schedule: Q01DX001 (ip), vehicle: saline) was 98 % of control and the T/C (dose: 150.0 mg/kg/injection, schedule: Q01DX001 (ip), vehicle: saline) was 101 % of control.
With `CCCCC=C1CC(C)CC(C)C1` (configuration not stated) the T/C [6] was 93 % of control and the T/C [7] was 93 % of control.
In the case of `CC(=O)c1ccc(C)c2ccccc12`, the T/C [3] is reported as 101 % of control, the T/C [4] is reported as 102 % of control and the T/C [5] is reported as 95 % of control.
With `C=C(C)COB(OCC(=C)C)OCC(=C)C` the T/C (dose: 25.0 mg/kg/injection, schedule: Q01DX009 (ip), vehicle: saline with Tween-80) was 100 % of control, the T/C [6] was 105 % of control and the T/C [7] was 94 % of control.
